Some test systems named below: SF-295 CNS; RPMI-8226 leukemia; NCI-H226 lung; HCC-2998 colon; SK-MEL-28 melanoma; UACC-62 melanoma; U251 CNS; NCI-H460 lung.
Holding throughout (test): DTP human tumour cell line panel, 48 h

Each structure is given as a SMILES string.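 Cultured in 96-well plates, cells were exposed to test compound for 48 hours across five concentrations. GI50: concentration for 50% inhibition of growth. TGI: total growth inhibition.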

The values below come from PubChem BioAssay (NCI).

The TGI is the concentration giving total growth inhibition. A high value points to less potent growth arrest. As usually defined, the GI50 is the concentration giving 50% growth inhibition.

Regarding `COc1ccc(-c2cc(=O)c3ccc(O)cc3o2)c(OC)c1OC`, the TGI in the assay with SF-295 CNS, in the assay with RPMI-8226 leukemia, in the assay with NCI-H226 lung, in the assay with HCC-2998 colon, in the assay on SK-MEL-28 melanoma and in the assay on UACC-62 melanoma was over 100 µM in each case.
With `CSc1ccc(/C=C2\CN(C)C/C(=C\c3ccc(SC)cc3)C2=O)cc1`, the TGI is over 100 µM in the assay with SF-295 CNS; over 100 µM in the assay on RPMI-8226 leukemia; 33.1 µM in the assay with U251 CNS; over 100 µM with NCI-H460 lung; over 100 µM in the assay on NCI-H226 lung; over 100 µM with HCC-2998 colon. The TGI with SK-MEL-28 melanoma and with UACC-62 melanoma was over 100 µM in each case.
Turning to `CC1(C)OC(=O)C(=Cc2ccc(O)cc2)C(=O)O1`, the total growth inhibition concentration (TGI) with SF-295 CNS, in the assay on RPMI-8226 leukemia, with U251 CNS, in the assay with NCI-H460 lung, in the assay with NCI-H226 lung and with HCC-2998 colon was over 100 µM throughout. Besides, the TGI in the assay with SK-MEL-28 melanoma and with UACC-62 melanoma was over 100 µM in each case.
As to `O=[S@@]1Nc2ccc(Br)cc2S1`, the TGI with SF-295 CNS, with RPMI-8226 leukemia, in the assay on U251 CNS, with NCI-H226 lung, with SK-MEL-28 melanoma and in the assay on UACC-62 melanoma was over 100 µM each time.
For the molecule `COc1cc2cnc3c4cc(OC(C)C)c(OC)cc4ccc3c2cc1OC`, the TGI in the assay with SF-295 CNS, in the assay with RPMI-8226 leukemia, with U251 CNS, in the assay on NCI-H460 lung, with HCC-2998 colon and in the assay with SK-MEL-28 melanoma was over 100 µM in each case. This molecule gave a TGI in the assay with UACC-62 melanoma of over 100 µM.
For `CC(=O)C(CN(C(C)C)C(C)C)C(c1ccccc1)c1c(O)c2ccccc2oc1=O` (configuration not stated), the TGI in the assay with SF-295 CNS, with RPMI-8226 leukemia, in the assay on U251 CNS, in the assay on NCI-H460 lung, in the assay with NCI-H226 lung and with SK-MEL-28 melanoma was over 100 µM in each case. In the assay with UACC-62 melanoma, the TGI is over 100 µM.
For the molecule `O=C(N/C(=C\c1cc(Cl)ccc1Cl)c1nc2[nH]c(=S)[nH]c(=O)c2[nH]1)c1ccccc1`, the TGI with SF-295 CNS is over 100 µM; in the assay with RPMI-8226 leukemia, 42.7 µM; with U251 CNS, over 76.1 µM; in the assay on NCI-H460 lung, over 100 µM; in the assay with NCI-H226 lung it was over 100 µM; in the assay with HCC-2998 colon, 30.7 µM. Further, the TGI with SK-MEL-28 melanoma was over 83.5 µM; in the assay on UACC-62 melanoma, over 92.9 µM.
On to `CCOC(=O)C(Sc1ccccc1)c1c(OC)cc(=O)oc1/C=[N+](/[O-])c1ccc(N(C)C)cc1` (configuration not stated), for which the TGI in the assay on SF-295 CNS was 67 µM; in the assay on RPMI-8226 leukemia it was 48 µM; in the assay on U251 CNS, 60.7 µM; in the assay with NCI-H460 lung, 82.5 µM; in the assay on HCC-2998 colon, 58.7 µM; in the assay with SK-MEL-28 melanoma, 37 µM. The TGI in the assay on UACC-62 melanoma is 51.8 µM.
Take `CC1=C(C(=O)Nc2ccccc2C)C(c2ccco2)C(C(=O)Nc2ccccc2C)=C(C)N1C`: the TGI with SF-295 CNS, in the assay with RPMI-8226 leukemia, in the assay on U251 CNS, in the assay with NCI-H460 lung, in the assay with NCI-H226 lung and with HCC-2998 colon was over 100 µM in each case. The total growth inhibition concentration (TGI) in the assay on SK-MEL-28 melanoma and in the assay with UACC-62 melanoma was over 100 µM each time.
Turning to `CC(=O)NC1=C(NCC(C)(C)C)C(=O)c2ccccc2C1=O`, the TGI in the assay on SF-295 CNS, with U251 CNS, in the assay with NCI-H460 lung, in the assay on NCI-H226 lung, in the assay on HCC-2998 colon and in the assay with SK-MEL-28 melanoma was over 100 µM each time. Moreover, the TGI with UACC-62 melanoma is over 100 µM.
Take `COc1ccc(-n2/c(=N/C(=S)N(C)C)ss/c2=N\C(=S)N(C)C)cc1`: the TGI in the assay with SF-295 CNS is over 100 µM; in the assay with RPMI-8226 leukemia, over 100 µM; in the assay with U251 CNS, over 100 µM; with NCI-H460 lung it was 11.2 µM; in the assay with NCI-H226 lung, over 100 µM; in the assay on HCC-2998 colon, over 100 µM. Moreover, the TGI in the assay with SK-MEL-28 melanoma is over 100 µM; in the assay with UACC-62 melanoma, 24.8 µM.
Consider `CN(CC(=O)O)S(=O)(=O)c1ccc2ccccc2c1`, for which the concentration for total growth inhibition (TGI) in the assay on SF-295 CNS, in the assay with RPMI-8226 leukemia, in the assay on U251 CNS, with NCI-H460 lung, in the assay on HCC-2998 colon and in the assay on SK-MEL-28 melanoma was over 100 µM in each case. The molecule further gave a concentration for total growth inhibition (TGI) with UACC-62 melanoma of over 100 µM.
Turning to `Nc1ccc(C(=O)N/C(=C\c2ccc3c(c2)OCO3)c2nc3[nH]c(=S)[nH]c(=O)c3[nH]2)cc1`, the total growth inhibition concentration (TGI) in the assay with SF-295 CNS, with U251 CNS, with HCC-2998 colon, in the assay on SK-MEL-28 melanoma and in the assay with UACC-62 melanoma was over 100 µM each time.
`CC(C)=CCCc1c(C)ccc2c1C(=O)C(=O)C(C(C)C)=C2`: the TGI in the assay with SF-295 CNS was over 22 µM; in the assay on RPMI-8226 leukemia, 6.16 µM; with U251 CNS, over 22 µM; in the assay with NCI-H460 lung it was over 22 µM; with NCI-H226 lung, over 22 µM; in the assay on HCC-2998 colon it was over 22 µM. For the same molecule, the total growth inhibition concentration (TGI) in the assay on SK-MEL-28 melanoma was 6.92 µM.
With `COc1cccc(NC(=O)CC(=O)n2nc(C)c(N=Nc3ccccc3)c2C)c1`, the TGI with SF-295 CNS, with RPMI-8226 leukemia, in the assay on U251 CNS, in the assay on NCI-H226 lung, in the assay on HCC-2998 colon and in the assay with SK-MEL-28 melanoma was over 100 µM in each case. This molecule showed a TGI with UACC-62 melanoma of over 100 µM.
For `O=C(/C=C/c1ccccc1Cl)c1ccc(Cl)c(Cl)c1`, the TGI was 31.3 µM in the assay on SF-295 CNS; over 100 µM in the assay with RPMI-8226 leukemia; 31.1 µM in the assay on U251 CNS; over 100 µM with NCI-H460 lung; over 100 µM in the assay on NCI-H226 lung; 28.8 µM in the assay on HCC-2998 colon. For the same molecule, the TGI was 40.4 µM with SK-MEL-28 melanoma and 45.6 µM in the assay on UACC-62 melanoma.
On to `CNC(=O)c1cc(Oc2ccc3nc(NC(=O)Nc4ccc(Cl)c(C(F)(F)F)c4)sc3c2)ccn1`, for which, in the assay with SF-295 CNS, the GI50 is 1.79 µM and the TGI is 3.71 µM. Also, in the assay with NCI-H226 lung, the GI50 is 2.69 µM and the TGI is 7.47 µM.
On to `COc1ccc2nc3cc(Cl)ccc3c(Sc3ccccc3[N+](=O)[O-])c2c1`, for which the TGI in the assay with SF-295 CNS is over 100 µM; in the assay with U251 CNS, over 100 µM; in the assay on NCI-H460 lung, over 100 µM; with NCI-H226 lung, 67.8 µM; in the assay with HCC-2998 colon it was over 100 µM; in the assay with SK-MEL-28 melanoma, over 100 µM. The molecule also gave a TGI in the assay on UACC-62 melanoma of over 100 µM.
`CC(=O)OC1COC(n2c(=S)n(-c3ccc(C)cc3)c(=O)c3ccccc32)C(OC(C)=O)C1OC(C)=O` (configuration not stated): the TGI in the assay on SF-295 CNS, with RPMI-8226 leukemia, in the assay on U251 CNS, in the assay with NCI-H460 lung, with NCI-H226 lung and with HCC-2998 colon was over 100 µM throughout. The TGI with SK-MEL-28 melanoma and in the assay on UACC-62 melanoma was over 100 µM each time.
On to `CCOC(=O)COc1cccc2c1C(=O)CCO2`, for which the TGI with SF-295 CNS, in the assay on RPMI-8226 leukemia, in the assay with U251 CNS, in the assay with NCI-H460 lung, in the assay on HCC-2998 colon and in the assay on SK-MEL-28 melanoma was over 100 µM each time. For the same molecule, the TGI in the assay with UACC-62 melanoma is over 100 µM.
Take `O=C(O)C(Cc1ccccc1)N1C(=O)N/C(=C\c2ccc(F)cc2)C1=O` (configuration not stated): the TGI in the assay on SF-295 CNS, with RPMI-8226 leukemia, in the assay on U251 CNS, in the assay with NCI-H460 lung, with NCI-H226 lung and in the assay with HCC-2998 colon was over 100 µM in each case. Further, the TGI in the assay with UACC-62 melanoma was over 100 µM.
`CC(=O)OC(C)C(=O)C1c2cccc(O)c2C(=O)c2c(O)cc(C)cc21` (configuration not stated): the concentration for total growth inhibition (TGI) in the assay on SF-295 CNS was found to be 1.19 µM; in the assay with RPMI-8226 leukemia, 5.98 µM; in the assay on U251 CNS, 1.11 µM; in the assay on NCI-H460 lung, 1.35 µM; in the assay on NCI-H226 lung it was 1.03 µM; in the assay with HCC-2998 colon, 1.69 µM. In the assay with SK-MEL-28 melanoma, the TGI was found to be 2.3 µM.
Consider `N#CC(C#N)=c1ccc(=C2NCC3CCCN23)cc1` (configuration not stated), for which the TGI with SF-295 CNS, in the assay on RPMI-8226 leukemia, in the assay with U251 CNS, in the assay with NCI-H460 lung, in the assay with NCI-H226 lung and in the assay on HCC-2998 colon was over 100 µM each time. Besides, the TGI in the assay with UACC-62 melanoma was over 100 µM.
As to `COc1ccc2c(c1)C1(C=N2)CCN(C(C)=O)CC1`, the TGI with SF-295 CNS, in the assay with RPMI-8226 leukemia, in the assay on U251 CNS, in the assay on NCI-H460 lung, in the assay with HCC-2998 colon and with SK-MEL-28 melanoma was over 100 µM in each case. Further, the TGI in the assay with UACC-62 melanoma is over 100 µM.
Take `O=C(CSC(=S)N1CCCCC1)Nc1nc2c(s1)CCCC2`: the TGI in the assay on SF-295 CNS was 79.3 µM; in the assay with RPMI-8226 leukemia, over 100 µM; with U251 CNS, over 100 µM; in the assay on NCI-H460 lung, over 100 µM; with NCI-H226 lung it was over 100 µM; in the assay with HCC-2998 colon, over 100 µM. Moreover, the TGI in the assay on SK-MEL-28 melanoma is over 100 µM.
As for `CCOC(=O)C1=C(C)CC2C(=O)OC(=O)C2C1(C)C` (configuration not stated), the TGI with SF-295 CNS, in the assay on RPMI-8226 leukemia, with U251 CNS, with NCI-H460 lung, in the assay with NCI-H226 lung and in the assay with HCC-2998 colon was over 100 µM in each case. In the assay with SK-MEL-28 melanoma, this molecule showed a total growth inhibition concentration (TGI) of over 100 µM.
